Tests used:
[1] = tested on: restraint ulcers; assay: inhibition of restraint ulcers in rats (Bonfils et al.), anti-ulcerogenic activity; assay type: in vivo, Sprague-Dawley male rats; settings: po; rat; p.o. one hour before immobilization; lesions counted 4 hours after immobilization; approximate ED50; read-out: Antiulcerogenic activity ED50 p.o.
From the text: (§1) The compounds of the present invention are active on the gastroenteric system, in particular they are endowed with anti-ulcerogenic and gastric anti-secretory activity and are therefore useful in therapy, for example in the prevention and treatment of peptic, e.g. duodenal, gastric and exophageal, ulcers and to inhibit gastric acid secretion. The compounds of the invention are also useful for reducing the undesirable gastrointestinal sideeffects resulting from systemic administration of antiinflammatory prostaglandin synthetase inhibitors and may be, therefore, used for this purpose in association with them. […] Six Sprague-Dawley male rats (100-120 g) fasted 24 hours were used for the experiment: a square flexible small-mesh were netting was used for the immobilization and 4 hours after the immobilization the rats were sacrificed, their stomachs were removed and the lesions counted under a dissecting microscope. […] Gastric antisecretory activity was evaluated in rats by the pylorus ligature technique. […] Four hours after the ligature the rats were sacrificed, the stomach secretion was collected and centrifuged at 3500 r.p.m. for 10 minutes, and the volume, less sediment, was determined.

[2] = tested on: gastric secretion; assay: inhibition of gastric secretion, pylorus ligature technique (Shay et al.), gastric antisecretory activity; assay type: in vivo, Sprague-Dawley male rats; settings: rat; intraduodenal at the time of pylorus ligature; 4 hours; approximate ED50; read-out: Gastric anti-secretory activity ED50 i.d.
From the text: as §1
The amount of the free hydrochloric acid in the gastric juice was determined by titration against 0.01N sodium hydroxide to pH 7.0 on the pH-meter.

[3] = approximate acute toxicity (LD50), single administration; settings: in vivo, po; mouse; per os; single administration of increasing doses; measured on the seventh day
Protocol: In view of their high therapeutic index, the compounds of the invention can be used safely in medicine. For example, the approximate acute toxicity (LD50) of the compound 1-phenyl-5-trans-[2-(3-pyridyl)-ethenyl]-1H,7H-pyrazolo [1,5-a]pyrimidine-7-one (FCE 21542) in the mouse, determined by single administration of increasing doses and measured on the seventh day after the day of treatment, is higher than 400 mg/kg per os. Analogous toxicity data have been found for other compounds of the invention. The compounds of the invention can be administered in a variety of dosage forms, e.g. orally, in the form of tablets, capsules, sugar or film coated tablets, liquid solutions or suspensions, rectally, in the form of suppositories, parenterally, e.g. intramuscularly, or by intravenous injection or infusion. The dosage depends on the age, weight, conditions of the patient and administration route; for example the dosage adopted for oral administration to adult humans may range from about 50 to about 200 mg pro dose, from 1 to 5 times daily. The invention includes also pharmaceutical compositions comprising a compound of the invention in association with a pharmaceutically acceptable excipient (which can be a carrier or diluent).

With `O=c1cc(/C=C/c2cccnc2)nc2ccn(-c3ccccc3)n12` [FCE 21542, 1-phenyl-5-trans-[2-(3-pyridyl)-ethenyl]-1H,7H-pyrazolo[1,5-a]pyrimidine-7-one] as the compound, how does the ED50 [1] read?
Its ED50 is ~7 mg/kg.

And the ED50 [2]?
The ED50 was ~3.2 mg/kg.

And the LD50 at 168 h [3]?
The LD50 at 168 h was > 400 mg/kg.

Source: patent US4490376A, “Substituted ethenyl derivatives of 1H-pyrazolo-[1,5-a]pyrimidine having gastroenteric activity, compositions thereof, and methods of using the same” (Farmitalia Carlo Erba S.p.A, priority 1982, dated 1984)
